Measured values as given in the NIST ThermoML archive (doi:10.1016/j.fluid.2012.05.007).

Assays:
[1] = wn = mass fraction of the nth substance listed; conditions: for viscosity / mass density: 101 kPa, Liquid; for viscosity: Capillary tube (Ostwald / Ubbelohde) method; for mass density: Pycnometric method; for surface tension liquid-gas: Pendant drop shape
[2] = mn = molality of the nth substance listed, in mol/kg; conditions: for surface tension liquid-gas: Pendant drop shape; for viscosity / mass density: 101 kPa, Liquid; for viscosity: Capillary tube (Ostwald / Ubbelohde) method; for mass density: Pycnometric method
[3] = 288.15 K

CN(CCO)CCO [N-methyldiethanolamine] + O
[1]
Conditions | mass density, 288.15 K [kg/m3] | mass density, 313.15 K [kg/m3] | surface tension liquid-gas, 313.15 K [mN/m] | viscosity, 288.15 K [mPa·s] | viscosity, 313.15 K [mPa·s]
w1 = 0.1 | 1007.1 | 1001.1 | 58.71 | 1.711 | 0.905
w1 = 0.2 | 1017.5 | 1008.1 | 54.68 | 2.631 | 1.312

O=C([O-])CC(O)(CC(=O)[O-])C(=O)[O-].[K+].[K+].[K+] [potassium citrate] + O
[2]
Conditions | mass density, 293.15 K [kg/m3] | mass density, 303.15 K [kg/m3] | mass density, 313.15 K [kg/m3] | mass density, 323.15 K [kg/m3] | surface tension liquid-gas, 293.15 K [mN/m] | viscosity, 293.15 K [mPa·s] | viscosity, 303.15 K [mPa·s] | viscosity, 313.15 K [mPa·s] | viscosity, 323.15 K [mPa·s]
m1 = 0.45 | 1117.7 | 1112.9 | 1107.8 | 1104.3 | 71.49 | 1.342 | 1.05 | 0.845 | 0.695
m1 = 0.83 | 1201.1 | 1197.2 | 1193.4 | 1190.3 | 75.75 | 1.891 | 1.448 | 1.127 | 0.925
m1 = 1.16 | 1294.6 | 1282.5 | 1274.6 | 1263.7 | 79.08 | 2.933 | 2.205 | 1.644 | 1.291
m1 = 1.48 | 1355.7 | 1343.2 | 1331.9 | 1322.8 | 81.1 | 4.989 | 3.56 | 2.597 | 1.986

O [water]
Conditions | surface tension liquid-gas [mN/m]
[3], Pendant drop shape | 75.16

Conditions | viscosity [mPa·s]
[3], 101 kPa, Liquid, Capillary tube (Ostwald / Ubbelohde) method | 1.144
